Two compounds from ChEMBL document CHEMBL3822376, “Potent anticholinesterasic and neuroprotective pyranotacrines as inhibitors of beta-amyloid aggregation, oxidative stress and tau-phosphorylation for Alzheimer's disease” (Eur J Med Chem, 2016) can be followed below.

Calls of active or inactive are those of the source. No cut-off for these calls is given here.

Data set [1] can be described thus: in vitro. The following applies: human, SH-SY5Y cells.
Description: Neurotoxicity in human SH-SY5Y cells assessed as cell viability at 5 uM after 24 hrs by XTT assay relative to control
Data set [2] is described as follows: in vitro. The following applies: human, HepG2 cells.
Description: (§1) Hepatotoxicity in human HepG2 cells assessed as reduction in cell viability by MTT assay
The nature of data set [3]: in vitro. Conditions: human, SH-SY5Y cells. The source holds these as a separate data set.
Description: Neurotoxicity in human SH-SY5Y cells assessed as cell viability at 50 uM after 24 hrs by XTT assay relative to control
Data set [4] addresses Acetylcholinesterase (Homo sapiens) (UniProt P22303). Briefly: Inhibition of AChE in human SH-SY5Y cells assessed as inhibition of amyloid beta (1 to 40) (unknown origin)-induced amyloid beta aggregation at 5 to 10 uM measured every 24 hrs for 7 days by Thioflavin T based fluorometric assay. The data set is classed as cell-based.
In data set [5] the target is Acetylcholinesterase (Electrophorus electricus) (UniProt O42275). Conditions: 25 uM.
Acetylcholinesterase (Electrophorus electricus), sequence (O42275 24-633 limits assumed): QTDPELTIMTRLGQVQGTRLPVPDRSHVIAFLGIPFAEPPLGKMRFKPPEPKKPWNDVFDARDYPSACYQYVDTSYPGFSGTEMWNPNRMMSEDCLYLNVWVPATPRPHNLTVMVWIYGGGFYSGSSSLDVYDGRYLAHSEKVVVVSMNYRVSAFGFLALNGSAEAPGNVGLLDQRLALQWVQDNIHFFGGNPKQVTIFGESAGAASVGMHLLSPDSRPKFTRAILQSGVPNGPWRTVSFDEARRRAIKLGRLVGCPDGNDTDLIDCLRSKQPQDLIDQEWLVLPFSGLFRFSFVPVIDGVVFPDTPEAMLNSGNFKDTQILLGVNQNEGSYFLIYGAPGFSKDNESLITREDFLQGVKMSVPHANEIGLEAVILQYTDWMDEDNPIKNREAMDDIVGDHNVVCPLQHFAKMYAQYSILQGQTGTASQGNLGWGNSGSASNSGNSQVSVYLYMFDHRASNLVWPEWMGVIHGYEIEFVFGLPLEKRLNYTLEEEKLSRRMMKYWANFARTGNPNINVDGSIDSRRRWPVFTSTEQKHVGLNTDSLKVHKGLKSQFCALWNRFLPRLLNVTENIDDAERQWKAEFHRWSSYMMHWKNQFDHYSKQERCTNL
Description: Inhibition of electric eel AChE-induced amyloid beta (1 to 40) aggregation at 25 uM measured every 24 hrs for 7 days by Thioflavin T based fluorometric assay relative to propidium iodide
Data set [6] concerns SH-SY5Y. Briefly: Neuroprotective activity against amyloid beta (1 to 40)-induced cell death in human SH-SY5Y cells assessed as increase in cell viability at 10 uM after 48 hrs by XTT assay. The data set is classed as functional, cell-based. In general terms: Tetrazolium assays rely on reduction of a dye to a coloured formazan, in cell work by metabolically active cells.
In data set [7] the target is Cholinesterase (Equus caballus) (UniProt P81908). Briefly: Inhibition of horse serum BuChE using […] as substrate at 50 uM preincubated for 15 mins followed by substrate addition by Ellman's method relative to control.
Cholinesterase (Equus caballus), sequence (P81908 whole entry): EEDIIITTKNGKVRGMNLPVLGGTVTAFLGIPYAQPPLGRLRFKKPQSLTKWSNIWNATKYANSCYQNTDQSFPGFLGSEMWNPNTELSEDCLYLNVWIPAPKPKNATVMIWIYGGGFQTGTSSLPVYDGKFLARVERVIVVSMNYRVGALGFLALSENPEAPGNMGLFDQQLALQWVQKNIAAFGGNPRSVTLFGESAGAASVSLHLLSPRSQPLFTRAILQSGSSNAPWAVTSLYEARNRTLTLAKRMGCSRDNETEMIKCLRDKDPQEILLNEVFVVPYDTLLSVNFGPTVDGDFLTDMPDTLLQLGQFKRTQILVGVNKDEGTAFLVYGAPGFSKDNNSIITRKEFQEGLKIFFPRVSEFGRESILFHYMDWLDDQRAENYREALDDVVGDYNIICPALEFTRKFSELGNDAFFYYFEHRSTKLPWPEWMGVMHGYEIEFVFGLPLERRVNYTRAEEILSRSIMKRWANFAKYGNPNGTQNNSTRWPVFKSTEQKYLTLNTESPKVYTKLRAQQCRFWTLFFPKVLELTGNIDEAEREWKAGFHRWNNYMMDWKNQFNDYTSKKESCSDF
The target of data set [8] is Acetylcholinesterase (Homo sapiens) (UniProt P22303). Briefly: Inhibition of AChE in human SH-SY5Y cells assessed as inhibition of amyloid beta (1 to 40) (unknown origin)-induced tau phosphorylation at Ser-396 residue at 5 to 10 uM after 48 hrs by Western blot analysis. The data set is classed as cell-based.
Acetylcholinesterase (Homo sapiens), sequence (P22303 whole entry): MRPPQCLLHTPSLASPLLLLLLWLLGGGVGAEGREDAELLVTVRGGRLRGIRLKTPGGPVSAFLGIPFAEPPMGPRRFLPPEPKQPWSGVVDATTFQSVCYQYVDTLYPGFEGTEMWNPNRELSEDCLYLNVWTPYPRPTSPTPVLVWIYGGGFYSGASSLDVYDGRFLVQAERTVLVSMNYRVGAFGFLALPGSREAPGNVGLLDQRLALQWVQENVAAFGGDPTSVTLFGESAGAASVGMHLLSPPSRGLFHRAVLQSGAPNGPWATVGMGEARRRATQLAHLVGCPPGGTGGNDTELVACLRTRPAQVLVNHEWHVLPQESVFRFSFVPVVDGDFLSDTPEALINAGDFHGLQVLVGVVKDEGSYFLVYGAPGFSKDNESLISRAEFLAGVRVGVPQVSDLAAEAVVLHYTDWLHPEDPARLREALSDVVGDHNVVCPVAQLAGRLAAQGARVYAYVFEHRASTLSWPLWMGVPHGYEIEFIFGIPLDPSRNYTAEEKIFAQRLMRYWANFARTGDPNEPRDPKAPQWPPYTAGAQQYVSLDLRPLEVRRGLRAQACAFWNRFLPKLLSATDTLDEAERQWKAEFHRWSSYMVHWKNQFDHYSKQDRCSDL
Data set [9] has as its system SH-SY5Y. Put plainly: Neuroprotective activity in human SH-SY5Y cells assessed as reversal of 15 nM okadaic acid-induced cell death at 1 to 10 uM after 24 hrs by XTT assay. In kind it is functional, cell-based.
A short description of data set [10]: in vitro. Conditions: human, SH-SY5Y cells. The source holds these as a separate data set.
Description: Neurotoxicity in human SH-SY5Y cells assessed as cell viability at 0.1 uM after 24 hrs by XTT assay relative to control
In data set [11] the test system is SH-SY5Y. Put plainly: cells. Conditions: Homo sapiens, 24 h.
Description: Neuroprotective activity against rotenone/oligomycin-A-induced cell death in human SH-SY5Y cells assessed as increase in cell viability after 24 hrs by XTT assay
Data set [12] concerns SH-SY5Y. Briefly: Neuroprotective activity against amyloid beta (1 to 40)-induced cell death in human SH-SY5Y cells at 10 uM after 48 hrs by phase contrast microscopic analysis. The data set is classed as functional, cell-based.
Data set [13] deals with SH-SY5Y. Briefly: Neuroprotective activity in human SH-SY5Y cells assessed as reversal of 20 nM okadaic acid-induced cell death at 1 to 10 uM after 24 hrs by XTT assay. In kind it is functional, cell-based.
Data set [14] deals with Acetylcholinesterase (Electrophorus electricus) (UniProt O42275). Put plainly: Inhibition of electric eel AChE-induced amyloid beta (1 to 40) aggregation at 25 uM measured every 24 hrs for 7 days by Thioflavin T based fluorometric assay relative to control.
In data set [15] the test system is SH-SY5Y. Put plainly: Neuroprotective activity against 20 nM okadaic acid-induced cell death in human SH-SY5Y cells at 5 to 10 uM after 24 hrs by phase contrast microscopic analysis. The data set is classed as functional, cell-based.
A short description of data set [16]: in vitro. The following applies: human, SH-SY5Y cells. This is another data set of the same source.
Description: Neurotoxicity in human SH-SY5Y cells assessed as cell viability at 1 uM after 24 hrs by XTT assay relative to control
Data set [17] has as its target T1, Acetylcholinesterase (Electrophorus electricus, UniProt O42275).
Description: Inhibition of electric eel AChE using acetylcholine as substrate preincubated for 15 mins followed by substrate addition by Ellman's method
Data set [18] addresses T1, Acetylcholinesterase. Put plainly: Mixed-type inhibition of electric eel AChE using acetylthiocholine as substrate preincubated for 15 mins followed by substrate addition by Dixon plot analysis.
The nature of data set [19]: in vitro. The following applies: human, SH-SY5Y cells. The source holds these as a separate data set.
Description: Neurotoxicity in human SH-SY5Y cells assessed as cell viability at 10 uM after 24 hrs by XTT assay relative to control
A short description of data set [20]: in vitro. Conditions: human, SH-SY5Y cells. This is another data set of the same source.
Description: Neurotoxicity in human SH-SY5Y cells assessed as cell viability at 25 uM after 24 hrs by XTT assay relative to control
Data set [21] is described as follows: in vitro. The following applies: human, HepG2 cells. The source holds these as a separate data set.
Data set [22] concerns the target Acetylcholinesterase (Homo sapiens) (UniProt P22303). Briefly: Inhibition of AChE in human SH-SY5Y cells assessed as decrease in okadaic acid-induced tau oligomerization at 10 uM after 24 hrs by Western blot analysis. The data set is classed as cell-based. A general note: A western blot detects proteins with antibodies after separation by electrophoresis.
For data set [23] the target is unchanged. Put plainly: Inhibition of AChE in human SH-SY5Y cells assessed as reduction in rotenone/oligomycin-A-induced tau phosphorylation at Ser-396 residue at 10 uM after 24 hrs by Western blot analysis. The data set is classed as cell-based.
Data set [24] has the same target. Put plainly: Inhibition of AChE in human SH-SY5Y cells assessed as decrease in okadaic acid-induced tau phosphorylation at Ser-396 residue at 10 uM after 24 hrs by Western blot analysis. The data set is classed as cell-based.

T1 sequence (O42275 whole entry): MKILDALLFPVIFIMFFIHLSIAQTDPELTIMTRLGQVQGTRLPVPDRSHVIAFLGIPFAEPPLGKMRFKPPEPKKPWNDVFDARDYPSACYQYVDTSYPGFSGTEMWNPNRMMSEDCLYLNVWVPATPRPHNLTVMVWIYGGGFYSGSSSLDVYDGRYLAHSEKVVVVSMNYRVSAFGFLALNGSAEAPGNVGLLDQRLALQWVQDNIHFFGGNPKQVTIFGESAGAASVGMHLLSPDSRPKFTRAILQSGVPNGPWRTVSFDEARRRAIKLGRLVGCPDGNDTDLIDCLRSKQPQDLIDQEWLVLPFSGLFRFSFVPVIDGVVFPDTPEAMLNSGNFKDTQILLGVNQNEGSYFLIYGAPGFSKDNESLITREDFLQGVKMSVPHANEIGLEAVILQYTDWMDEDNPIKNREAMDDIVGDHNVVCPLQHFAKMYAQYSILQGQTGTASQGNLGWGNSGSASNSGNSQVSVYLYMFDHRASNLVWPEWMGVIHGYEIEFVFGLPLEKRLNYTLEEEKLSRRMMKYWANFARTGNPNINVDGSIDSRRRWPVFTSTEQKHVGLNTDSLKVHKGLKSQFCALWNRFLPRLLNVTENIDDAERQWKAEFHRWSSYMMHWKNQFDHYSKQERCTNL
Description for HepG2: as §1

The term viability denotes a read-out of living cells in per cent, often relative to untreated cells. Broadly, the EC50 is the concentration at which the effect is half-maximal. Lower therefore signals higher potency in that assay. The term inhibition denotes the relative decrease from the control value, in per cent. For orientation: IC50 means the midpoint of a concentration-inhibition curve. A lower IC50 goes with inhibition by little substance. By Ki is commonly meant the dissociation constant of the complex between target and ligand, obtained from inhibition or displacement. Low readings indicate higher affinity, high ones lower affinity. As for `COC(=O)C1=C(C)Oc2nc3c(c(N)c2C1c1cc2ccc(OC)cc2nc1Cl)CCCC3` (configuration not stated), the viability at 24 h, 5 µM in “in vitro [1]” is 132%. In addition, the values for the EC50 in the data set “in vitro [2]” and in the data set with SH-SY5Y [11] were 622 µM and 0.63 µM, respectively. Moreover, the viability at 24 h, 50 µM in “in vitro [3]” is 82.5%. The inhibition result in data set [4] and in [8] was “Active” throughout. The inhibition in data set [5] was 65%; in data set [7], 50%; in [14] it was 75%. Moreover, the outcome with SH-SY5Y [6], with SH-SY5Y [9], in the data set with SH-SY5Y [12], with SH-SY5Y [13] and with SH-SY5Y [15] was Active. For the same compound, the viability at 24 h, 0.1 µM in the data set “in vitro [10]” is 128%. In addition, the viability at 24 h, 1 µM in the data set “in vitro [16]” is 105%. This compound also yielded a 50% inhibitory concentration (IC50) at Acetylcholinesterase [17] of 0.47 µM. This compound registered a Ki at Acetylcholinesterase [18] of 0.0142 µM. Moreover, the viability at 24 h, 10 µM in “in vitro [19]” was 113%. The viability at 24 h, 25 µM in “in vitro [20]” is 133%. Moreover, the selectivity ratio in the data set “in vitro [21]” worked out at 3.4.

On to `CCOC(=O)C1=C(C)Oc2nc3c(c(N)c2C1c1cc2ccccc2nc1Cl)CCCC3` (configuration not stated), for which the viability at 24 h, 5 µM in “in vitro [1]” was found to be 99.7%. Also, the EC50 in the data set with HepG2 was found to be 4820 µM; in the data set on SH-SY5Y [11], 1.54 µM. In addition, the viability at 24 h, 50 µM in “in vitro [3]” amounted to 93.6%. Besides, the inhibition result in [22], in [4], in data set [8], in [23] and in data set [24] was “Active” in each case. For the same compound, the result with SH-SY5Y [6], with SH-SY5Y [9], in the data set on SH-SY5Y [12], in the data set with SH-SY5Y [13] and in the data set on SH-SY5Y [15] was Active. The inhibition in data set [7] is 50%. The viability at 24 h, 0.1 µM in “in vitro [10]” was found to be 110%. In the data set “in vitro [16]”, the viability at 24 h, 1 µM came out at 104%. For the same compound, on Acetylcholinesterase [17], the 50% inhibitory concentration (IC50) came out at 0.48 µM. Also, the viability at 24 h, 10 µM in the data set “in vitro [19]” came out at 96.5%. In addition, the viability at 24 h, 25 µM in the data set “in vitro [20]” came to 95.5%. The selectivity ratio in the data set “in vitro [21]” worked out at 27.
